Measured values published in US12403132B2, “Methods of treating bone marrow failure syndromes and compositions for use in the same” (The Board of Trustees of the Leland Stanford Junior …, priority 2020, dated 2025).
Like-named read-outs stand apart in the source and are kept apart here.

Columns and labels:
CD235+ erythroblasts [1] = experiment: CD235+ erythroid expansion of differentiating human cord blood CD34+ progenitors (shRPS19/shRPL11 DBA models), flow cytometry; format: cell-based; design: increase of erythroid expansion / impact on erythropoiesis in healthy controls / erythroid expansion in RPS19-insufficiency: dose or concentration left out as unconfirmed; conditions: for erythroid expansion in RPS19-insufficiency: alone and combined; for increase of CD235+ erythroid expansion / CD235+ erythroid expansion, % of control: 50 mM metformin; for CD235+ erythroid expansion, % of control: 14 days
CD235+ erythroblasts [2] = experiment: as above; format: cell-based; conditions: for CD235+ erythroid expansion in RPS19-insufficiency, % of control: 6.6% of controls (shLuc) untreated; for fold increase of erythroid expansion in response to SD208: 5 μM; for increase of erythroid expansion in RPS19-insufficiency: concentrations published to block TGFβ signaling, 15 days
Protocol: FIG. 7. […] (a) Differentiating cord blood CD34+ progenitors were transduced with shRNA against luciferase or RPS19 and treated with inhibitors at working concentrations for TGFβ inhibition every three days. Cells were counted and CD235+ erythroid cells were assessed by flow cytometry after 15 days. (b) Prior to flow cytometry, 5000 cells per group were taken from differentiating cultures for NLK kinase assay. (c) CD34+ progenitors were transduced with shRNA against luciferase or RPS19 and non-targeting or siRNA against NLK. After sorting, samples were split into two groups and either treated with vehicle or SD208 every three days. After 15 days cells were counted and subject to flow cytometry to compare the expansion of maturing CD235+ erythroid (left panel) and CD11b+ myeloid cells (right panel). (d) Cord Blood CD34+ progenitors were transduced with shRNA against luciferase (left panel) or RPS19 (right panel) differentiated in erythroid media for 15 days alone, or in the presence of SB525334 or SD208 at 5 μM. Cells were counted and CD235+ erythroid (D—upper) and CD11b+ myeloid cell (D—lower) percentages were determined by flow cytometry. The number of erythroid or myeloid cells is expressed as a percentage of the number of that lineage with no cytokine or drug treatment.
FIG. 8. […] Human cord blood CD34+ progenitors were transduced with lentivirus co-expressing GFP with shRNA against luciferase (shLuc), RPS19 (shRPS19) or RPL11 (shRPL11). After 36 hours cells GFP+ cells were differentiated in erythroid media in the presence or absence of 5 μM SD208 for 15 days. Cells were counted and assessed for cell surface expression of CD235. (a) The percentage of CD235+ cells was multiplied by the cell count and values were compared as a percentage of untreated controls. (b) Normalizing values relative to untreated RPS19-insufficiency progenitors facilitates direct comparison of erythropoiesis between untreated and SD208-treated cultures. (c) Approximately 3000 cells were removed from differentiating treatments at day 6 and NLK activity was assessed. Values were normalized to reflect a fold induction relative to untreated controls. (d) Lin-Kit+ hematopoietic progenitors were obtained from three mouse embryos expressing tetracycline-inducible shRNA against RPS19 at day E14.5 or three untreated mice, and thee mature RPL11^+/+ or three mature RPL11^+/lox mice treated with tamoxifen for eight weeks. Cells were grown in the presence or absence of doxycycline and/or SD208 for eight days prior to counting and assessing for ter119 surface expression. Values were expressed as a percentage relative to untreated controls (e) and directly comparing the effect of SD208 on erythropoiesis in ribosomal-insufficiency by expressing values relative to untreated ribosome-insufficient cultures (f). At day 5 approximately 3000 cells were assayed for NLK kinase assay (g). CD34+ HSPCs were isolated from three healthy control and three DBA patient mononuclear bone marrow aspirates by magnetic bead sorting and differentiated in the presence or absence of SD208 for 14 days. After counting the total cell population, the ratio of CD235+ erythroblasts was determined by flow cytometry and number of CD235+ erythroblasts calculated. This was expressed as a percentage of the average number of erythroid cells present in untreated healthy controls. (h) The direct effect of SD208 on erythroid expansion in DBA patient samples was calculated following normalization of untreated DBA patient samples as 1-fold, (i) At day five, 3000 cells from each of the differentiating cultures was analyzed for NLK activity by kinase assay and are expressed as a fold induction relative to untreated healthy controls.

CC(C)=CCC[C@](C)(O[C@@H]1O[C@H](CO[C@@H]2O[C@H](CO)[C@@H](O)[C@H](O)[C@H]2O)[C@@H](O)[C@H](O)[C@H]1O)[C@H]1CC[C@]2(C)[C@@H]1[C@H](O)C[C@@H]1[C@@]3(C)CC[C@H](O[C@@H]4O[C@H](CO)[C@@H](O)[C@H](O)[C@H]4O[C@@H]4O[C@H](CO)[C@@H](O)[C@H](O)[C@H]4O)C(C)(C)[C@@H]3CC[C@]12C [ginsenoside Rb1]
concentration at which 90% potency is achieved (CD235+ erythroblasts [1]): 8.6 mM
impact on erythropoiesis in healthy controls (CD235+ erythroblasts [1]): did not significantly impact
improvement of erythroid expansion (CD235+ erythroblasts [1]; RPS19-insufficiency, ginsenoside and/or siRNA against NLK): 2.7 fold
increase of erythroid expansion (CD235+ erythroblasts [1]; RPS19-insufficiency, miRNA and/or drug): 2.52 fold
increase of erythroid expansion (CD235+ erythroblasts [1]; RPS19-insufficient progenitors): 2.6 fold
erythroid expansion in RPS19-insufficiency (CD235+ erythroblasts [1]): 20.9%
EC50 (CD235+ erythroblasts [1]; read-out: EC50 value (erythroid expansion)): 2.3 mM

Fc1ccc(Cl)cc1-c1nc(Nc2ccncc2)c2nccnc2n1 [SD208]
CD235+ erythroid expansion in RPS19-insufficiency, % of control (CD235+ erythroblasts [2]): 41.5%
fold increase of erythroid expansion in response to SD208 (CD235+ erythroblasts [2]; RPL11-insufficiency): 6.9 fold
erythroid expansion, % of untreated controls (CD235+ erythroblasts [2]; RPL11-insufficiency, SD208 5 μM, 5.8% untreated): 36.7%
fold increase of erythroid expansion in response to SD208 (CD235+ erythroblasts [2]; RPS19-insufficiency): 4.7 fold
erythroid expansion, % of untreated controls (CD235+ erythroblasts [2]; RPS19-insufficiency, SD208 5 μM, 8.7% untreated): 38.7%
RPS19-insufficient erythroid expansion, fold of non-TGFβ-treated cells (CD235+ erythroblasts [2]; TGFβ-treated, SD208 5 μM): 4.1 fold
increase of erythroid expansion in RPS19-insufficiency (CD235+ erythroblasts [2]): 6.3 fold
CD235+ erythroblast expansion, % of controls (CD235+ erythroblasts [1]; RPS19-insufficient, SD208 and/or siRNA against NLK, 15 days): 40.3%
erythroid expansion, % of untreated controls (CD235+ erythroblasts [1]; control shRNA, SD208 5 μM, 15 days): approximately 105%

Cc1cccc(-c2nn3c(c2-c2ccnc4ccc(C(N)=O)cc24)CCC3)n1 [Galunisertib]
CD235+ erythroid expansion in RPS19-insufficiency, % of control (CD235+ erythroblasts [2]): 21%
increase of erythroid expansion in RPS19-insufficiency (CD235+ erythroblasts [2]): 3.2 fold

CN(C)C(=N)N=C(N)N [metformin]
concentrations at which significant erythroid improvement was detected (CD235+ erythroblasts [1]): above 8 mM
EC50 (CD235+ erythroblasts [1]; Homo sapiens, read-out: EC50 (erythroid expansion)): 11.4 mM
increase of CD235+ erythroid expansion (CD235+ erythroblasts [1]; RPL11-insufficiency): 2.0 fold
CD235+ erythroid expansion, % of control (CD235+ erythroblasts [1]; RPL11-insufficiency, 16.4% untreated): 32.7%
improvement of erythropoiesis (CD235+) (CD235+ erythroblasts [1]; RPS19-insufficiency (8.3% of controls untreated), 12 days): 3.6 fold
increase of CD235+ erythroid expansion (CD235+ erythroblasts [1]; RPS19-insufficiency): 5.9 fold
CD235+ erythroid expansion, % of control (CD235+ erythroblasts [1]; RPS19-insufficiency, 5.7% untreated): 33.3%
erythroid expansion in RPS19-insufficiency (CD235+ erythroblasts [1]): 28.4%

NC(=O)c1ccc(-c2nc(-c3ccc4c(c3)OCO4)c(-c3ccccn3)[nH]2)cc1 [SB431542]
CD235+ erythroid expansion in RPS19-insufficiency, % of control (CD235+ erythroblasts [2]): 21%
increase of erythroid expansion in RPS19-insufficiency (CD235+ erythroblasts [2]): 3.2 fold
